# Data published in paper PMC11199504, “New hemisynthetic derivatives of sphaeropsidin phytotoxins triggering severe endoplasmic reticulum swelling in cancer cells” (Scientific Reports, 2024).
# Assays:
# Type in all cases: cell-based
# A549 = assay: MTT colorimetric assay, A549; conditions: Homo sapiens, 72 h treatment, mean ± SEM of six replicates of one experiment (1: 7, 13: 6 independent experiments), resistant to apoptosis, read-out: IC50 determined by MTT assays, A549
# Text: (§1) Cancer cell lines were obtained from either the European Collection of Cell Cultures (ECACC; Salisbury, UK) or the American Type Culture Collection (ATCC; Manassas, VA). The two glioma cell lines were the U373 (ECACC code 08061901) and Hs683 (ATCC HTB-138) cell lines. The carcinoma cell lines were the A549 non-small cell carcinoma cell line (ATCC code CCL 185) and the MCF-7 mammary breast carcinoma cell line (ATCC code HTB-22). The melanoma cell lines were the mouse B16F10 cells (ATCC code CRL-6475) and the human SKMEL-28 cells (ATCC code HTB-72). The ovarian cancer cell line A2780 and its cisplatin-resistant subline A2780cis were obtained from Sigma-Aldrich (St. Louis, MO, USA). Colon cancer HCT116 cells were obtained from ATCC (CCL-247) and the oxaliplatin-resistant subline HCT116/OxR established in the W. Berger lab[59]. The HeLa cell derivative KB-3-1 and the colchicine-selected, highly ABCB1-overexpressing subline KB-C-1 were generously donated by Dr. D. W. Shen, Bethesda, MD. RKOp53wt colon cancer cells together with the RKOp53KO (homozygous knock-out) subline[60] were generously provided by Dr. Vogelstein from John Hopkins University, Baltimore. The correct origin of all cell models was confirmed by STR during performance of the experiments. All cell lines were cultured in RPMI1640 culture medium supplemented with 10% heat-inactivated fetal bovine serum, 2% L-glutamine (0.6 mg/mL), 2% penicillin/streptomycin (200 IU/mL and 200 μg/mL) and 0.1 mg/mL gentamicin.
# (§2) The MTT (3-(4,5-dimethylthiazol-2-yl)-2,5-diphenyl tetrazolium bromide) colorimetric assay has been conducted as described previously. Briefly, cells were seeded 24 h before their treatment with each compound for a period of 72 h. The concentrations tested ranged from 10 nM to 100 µM. Each assay was conducted in sextuplicates. The number of independent experiments is mentioned in the legend of the tables.
# SKMEL-28 = assay: MTT colorimetric assay, SKMEL-28; conditions: Homo sapiens, SK-MEL-28; 72 h treatment; mean ± SEM; resistant to apoptosis; read-out: IC50 determined by MTT assays, SKMEL-28
# Text: as §1, §2
# U373 = assay: MTT colorimetric assay, U373; conditions: Homo sapiens, U373 MG; 72 h treatment; mean ± SEM; resistant to apoptosis; read-out: IC50 determined by MTT assays, U373
# Text: as §1, §2
# MCF7 = assay: MTT colorimetric assay, MCF7; conditions: Homo sapiens, 72 h treatment, mean ± SEM, sensitive to apoptosis, read-out: IC50 determined by MTT assays, MCF7
# Text: as §1, §2
# Hs683 = assay: MTT colorimetric assay, Hs683; conditions: Homo sapiens, Hs 683; 72 h treatment; mean ± SEM; sensitive to apoptosis; read-out: IC50 determined by MTT assays, Hs683
# Text: as §1, §2
# B16F10 = assay: MTT colorimetric assay, B16F10; conditions: Mus musculus, B16-F10; 72 h treatment; mean ± SEM; sensitive to apoptosis; read-out: IC50 determined by MTT assays, B16F10
# Text: as §1, §2
# [1] = test system: A549, SKMEL-28, U373, MCF7, Hs683, B16F10; assay: MTT colorimetric assay, mean of the six cell lines; conditions: 72 h, mean over the six cell lines; 72 h treatment; read-out: IC50 determined by MTT assays, Mean
# Text: as §1, §2
# [2] = test system: SK-MEL-28 human melanoma and U373 glioblastoma cells; assay: ER swelling / vacuole origin (CellLight ER-GFP, brightfield, TEM); conditions: SK-MEL-28 and U373 cells
# Text: To decipher the origin of vacuoles, fluorescent probes staining different cellular compartments were used: the lysosomal Red DND-99 LysoTracker®, the glibenclamide Red ER tracker®, the green FM MitoTracker® that were all purchased from Lifes Technologies (Invitrogen, Belgium) and used according to manufacturer’s instructions. The CellLight ER-GFP (Thermofisher, Belgium) staining of the ER is based on the transfection of a plasmid coding for a fusion protein made of GFP fused to the ER signal sequence of calreticulin and the KDEL ER retention signal. Briefly, 6 × 10^4 cells were seeded on glass coverslips in 6 well plates. After a minimum of 24 h, cells were treated or not with the compounds of interest. Note that concentration and duration of the treatment were determined separately for each compound prior to the experiment on the basis of the apparition of marked morphological changes in phase contrast microscopy. Sixteen hours before the end of the experiment, 4 µL/well of the reagent were added to allow transfection and expression of the GFP-fused protein by the cells. Coverslips were then washed twice in PBS and mounted on slides without fixation step to take captions with the Axio.Imager.M2 microscope (Carl Zeiss, Belgium). To evaluate the cellular distribution of 13, the Axio.Imager.M2 was specifically equipped with an M340L4 excitation source (Thorlabs) and the pseudoconfocal Zeiss ZEN deconvolution system kindly provided for demo by Carl Zeiss (Belgium) to allow direct visualization of the compound 13 itself thanks to its intrinsic fluorescent properties.
# For TEM, cells were fixed with glutaraldehyde 2.5% (EM grade, Electron Microscopy Sciences, EMS) at 4 °C overnight, washed tree times in cacodylate buffer (pH 7.4) and postfixed 1 h at room temperature in 1% OsO4, (EMS), 1.5% potassium ferrocyanide (Sigma-Aldrich) in 0.15 M cacodylate buffer. This was immediately followed by a second incubation in 1% OsO4 for 1 h at room temperature. After washing in distilled water, samples were stained with 1% uranyl acetate (EMS) and serially dehydrated in increasing ethanol concentrations. Samples were then embedded in epoxy resin (Agar 100 resin, Agar Scientific Ltd) and left to polymerize for 2 days at 60 °C. Ultrathin sections (50–70 nm thick) were collected with a Leica UC6 ultra-microtome on formvar-carbon-coated copper grids and further stained with uranyl acetate and lead citrate by standard procedures. Observations were made on a Tecnai 10 transmission electron microscope (FEI) and images were captured with a Veleta camera and processed with SIS iTEM software (Olympus).
Compound,IC50 (A549) [nM],IC50 (SKMEL-28) [nM],IC50 (U373) [nM],IC50 (MCF7) [nM],IC50 (Hs683) [nM],IC50 (B16F10) [nM],IC50 [1] [nM],ER swelling / ER-derived vacuolization [2]
CC1(C=CCOCc2ccc3ccc4cccc5ccc2c3c45)C=C2C(=O)C3(O)OC(=O)C4(CCCC(C)(C)C34)C2(O)CC1 (stereo not shown) [Compound 25],3470 ± 3280,3320 ± 300,3930 ± 100,2710 ± 140,3320 ± 230,3280 ± 300,3340 ± 160,induction of ER-derived vacuolization
CC1(C=CCCOc2cccc3ccccc23)C=C2C(=O)C3(O)OC(=O)C4(CCCC(C)(C)C34)C2(O)CC1 (stereo not shown) [Compound 26],2050 ± 200,2460 ± 80,2840 ± 120,1300 ± 110,3100 ± 230,1080 ± 140,2140 ± 330,induction of ER-derived vacuolization
